Reference: PubChem BioAssay AID330 (DTP/NCI, 2004)
“And” between values parts separate entries of the source, which are not always exact repeats. Equal values may be shown once. Inconclusive results and toxic doses are left out.

System: P388 leukemia ip, CD2F1 mice, survival T/C
Assay: NCI In Vivo Anticancer Drug Screen. Data for tumor model P388 Leukemia (intraperitoneal) in CD2F1 (CDF1) mice
Settings: endpoint: median survival time, higher = longer survival
Method in brief: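 Mice carrying the transplanted tumor received test compound or vehicle. Survival was recorded in each group, and the value is the treated-group measurement divided by that of the vehicle-treated control group.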

[1] = dose: 50.0 mg/kg/injection, schedule: Q01DX009 (ip), vehicle: Klucel (hydroxypropylcellulose) (HPC)
[2] = dose: 100.0 mg/kg/injection, schedule: Q01DX009 (ip), vehicle: Klucel (hydroxypropylcellulose) (HPC)
[3] = dose: 200.0 mg/kg/injection, schedule: Q01DX009 (ip), vehicle: Klucel (hydroxypropylcellulose) (HPC)
[4] = dose: 60.0 mg/kg/injection, schedule: Q01DX005 (ip), vehicle: saline with Tween-80
[5] = dose: 120.0 mg/kg/injection, schedule: Q01DX005 (ip), vehicle: saline with Tween-80
[6] = dose: 240.0 mg/kg/injection, schedule: Q01DX005 (ip), vehicle: saline with Tween-80
[7] = dose: 50.0 mg/kg/injection, schedule: Q01DX009 (ip), vehicle: saline with Tween-80
[8] = dose: 100.0 mg/kg/injection, schedule: Q01DX009 (ip), vehicle: saline with Tween-80
[9] = dose: 25.0 mg/kg/injection, schedule: Q01DX009 (ip), vehicle: saline with Tween-80
[10] = dose: 12.5 mg/kg/injection, schedule: Q01DX009 (ip), vehicle: Klucel (hydroxypropylcellulose) (HPC)
[11] = dose: 25.0 mg/kg/injection, schedule: Q01DX009 (ip), vehicle: Klucel (hydroxypropylcellulose) (HPC)

Question: Which results are given for `COc1cccc2c1C(=O)c1c(O)c3c(c(O)c1C2=O)C[C@@](O)(C(O)CO)C[C@@H]3OC1CC(N)C(O)C(C)O1` (some centres not stated)?
Answer: T/C (dose: 0.78 mg/kg/injection, schedule: Q01DX009 (ip), vehicle: water): 155 % of control and 150 % of control; T/C (dose: 1.56 mg/kg/injection, schedule: Q01DX009 (ip), vehicle: water): 174 % of control and 168 % of control; T/C (dose: 2.0 mg/kg/injection, schedule: Q01DX009 (ip), vehicle: water): 183 % of control; T/C (dose: 3.13 mg/kg/injection, schedule: Q01DX009 (ip), vehicle: water): 192 % of control and 200 % of control; T/C (dose: 4.0 mg/kg/injection, schedule: Q01DX009 (ip), vehicle: water): 211 % of control; T/C (dose: 6.25 mg/kg/injection, schedule: Q01DX009 (ip), vehicle: water): 260 % of control and 197 % of control and 264 % of control; T/C (dose: 6.25 mg/kg/injection, schedule: Q04DX003 (ip), vehicle: water): 116 % of control; T/C (dose: 8.0 mg/kg/injection, schedule: Q01DX009 (ip), vehicle: water): 266 % of control; T/C (dose: 12.5 mg/kg/injection, schedule: Q01DX009 (ip), vehicle: water): 95 % of control; T/C (dose: 16.0 mg/kg/injection, schedule: Q01DX009 (ip), vehicle: water): 94 % of control; T/C (dose: 25.0 mg/kg/injection, schedule: Q04DX003 (ip), vehicle: water): 198 % of control; T/C (dose: 50.0 mg/kg/injection, schedule: Q04DX003 (ip), vehicle: water): 172 % of control

Question: For `O=C(c1ccc(F)cc1)c1no[n+]([O-])c1C(=O)c1ccc(F)cc1`, which T/C (dose: 37.5 mg/kg/injection, schedule: Q01DX009 (ip), vehicle: saline with Tween-80) is on record?
Answer: 122 % of control

Question: What about the T/C (dose: 75.0 mg/kg/injection, schedule: Q01DX009 (ip), vehicle: saline with Tween-80) of the same compound?
Answer: 118 % of control

Question: With `CC(=O)OC(C(=O)CCl)C(OC(C)=O)C(OC(C)=O)C(=O)CCl` (configuration not stated) as the compound, how does the T/C (dose: 12.5 mg/kg/injection, schedule: Q01DX009 (ip), vehicle: distilled water + Tween-80 + alcohol) read?
Answer: 93 % of control

Question: And the T/C (dose: 25.0 mg/kg/injection, schedule: Q01DX009 (ip), vehicle: distilled water + Tween-80 + alcohol)?
Answer: 101 % of control

Question: And the T/C (dose: 50.0 mg/kg/injection, schedule: Q01DX009 (ip), vehicle: distilled water + Tween-80 + alcohol)?
Answer: 100 % of control

Question: How did the T/C [1] turn out when `COc1ccc(/C=C2\NC(c3ccccc3)OC2=O)cc1OC` (configuration not stated) was run?
Answer: 98 % of control

Question: What about the T/C [2] of the same compound?
Answer: 89 % of control

Question: And the T/C [3]?
Answer: 100 % of control

Question: Which T/C (dose: 100.0 mg/kg/injection, schedule: Q04DX003 (ip), vehicle: suspension in saline) does the source give for `CN1C(c2ccccc2)C2CCCC(C1c1ccccc1)[N+](C)(C)C2` (configuration not stated) here?
Answer: 104 % of control

Question: And the T/C (dose: 200.0 mg/kg/injection, schedule: Q04DX003 (ip), vehicle: suspension in saline)?
Answer: 100 % of control

Question: What about the T/C (dose: 400.0 mg/kg/injection, schedule: Q04DX003 (ip), vehicle: suspension in saline) of the same compound?
Answer: 100 % of control

Question: With `O=C1Nc2cccnc2NC2=C1CSC2` as the compound, how does the T/C [4] read?
Answer: 110 % of control

Question: And the T/C [5]?
Answer: 97 % of control

Question: What about the T/C [6] of the same compound?
Answer: 98 % of control

Question: `CN(C)CCC(=O)C(=Cc1ccccc1)C(=O)CCN(C)C` was tested. Which T/C (dose: 50.0 mg/kg/injection, schedule: Q01DX005 (ip), vehicle: saline) did it give?
Answer: 114 % of control

Question: And the T/C (dose: 100.0 mg/kg/injection, schedule: Q01DX005 (ip), vehicle: saline)?
Answer: 99 % of control

Question: And the T/C (dose: 200.0 mg/kg/injection, schedule: Q01DX005 (ip), vehicle: saline)?
Answer: 101 % of control

Question: Which T/C (dose: 5.0 mg/kg/injection, schedule: Q01DX005 (ip), vehicle: Klucel (hydroxypropylcellulose) (HPC)) does the source give for `CC1C(=O)OC2C(O)C34C5OC(=O)C3(OC3OC(=O)C(O)C34C(C(C)(C)C)C5O)C12O` (configuration not stated) here?
Answer: 93 % of control

Question: And the T/C (dose: 10.0 mg/kg/injection, schedule: Q01DX005 (ip), vehicle: Klucel (hydroxypropylcellulose) (HPC))?
Answer: 95 % of control

Question: And the T/C (dose: 20.0 mg/kg/injection, schedule: Q01DX005 (ip), vehicle: Klucel (hydroxypropylcellulose) (HPC))?
Answer: 89 % of control

Question: And the T/C (dose: 40.0 mg/kg/injection, schedule: Q01DX005 (ip), vehicle: Klucel (hydroxypropylcellulose) (HPC))?
Answer: 93 % of control

Question: And the T/C (dose: 80.0 mg/kg/injection, schedule: Q01DX005 (ip), vehicle: Klucel (hydroxypropylcellulose) (HPC))?
Answer: 89 % of control

Question: With `CN1CCCC(C(=O)c2ccccc2)C1` (configuration not stated) as the compound, how does the T/C (dose: 12.5 mg/kg/injection, schedule: Q01DX009 (ip), vehicle: saline) read?
Answer: 109 % of control

Question: And the T/C (dose: 25.0 mg/kg/injection, schedule: Q01DX009 (ip), vehicle: saline)?
Answer: 105 % of control

Question: What about the T/C (dose: 50.0 mg/kg/injection, schedule: Q01DX009 (ip), vehicle: saline) of the same compound?
Answer: 107 % of control and 94 % of control

Question: Which results are given for `COc1ccc(C#CC2(O)c3ccccc3C(O)(C#Cc3ccc(OC)cc3)c3ccccc32)cc1` (configuration not stated)?
Answer: T/C [7]: 98 % of control; T/C [8]: 98 % of control

Question: How did the T/C [9] turn out when `C=C(CCCC)[Se]c1ccccc1` was run?
Answer: 103 % of control and 107 % of control

Question: What about the T/C [7] of the same compound?
Answer: 107 % of control and 95 % of control

Question: And the T/C [8]?
Answer: 101 % of control and 117 % of control

Question: For `CS(=O)(=O)OC1COCOC1C1OCOCC1OS(C)(=O)=O` (configuration not stated), which T/C [10] is on record?
Answer: 91 % of control

Question: And the T/C [11]?
Answer: 92 % of control

Question: And the T/C [1]?
Answer: 95 % of control

Question: What about the T/C [3] of the same compound?
Answer: 102 % of control

Question: Which results are given for `[Cl][Sn]1([Cl])[CH2]CCCCCCCCCC[CH2][Sn]([Cl])([Cl])[CH2]CCCCCCCCCC[CH2]1`?
Answer: T/C (dose: 50.0 mg/kg/injection, schedule: Q01DX005 (ip), vehicle: saline with Tween-80): 100 % of control; T/C (dose: 100.0 mg/kg/injection, schedule: Q01DX005 (ip), vehicle: saline with Tween-80): 86 % of control and 96 % of control; T/C (dose: 200.0 mg/kg/injection, schedule: Q01DX005 (ip), vehicle: saline with Tween-80): 91 % of control

Question: `O=[N+]([O-])c1cccc(N=Nn2cccc2)c1` was tested. Which T/C [9] did it give?
Answer: 100 % of control

Question: And the T/C [7]?
Answer: 100 % of control

Question: And the T/C [8]?
Answer: 109 % of control

Question: For `Cc1cc(NCCCCCCNc2cc(C)nc3ccc(N)cc23)c2cc(N)ccc2n1`, which T/C (dose: 75.0 mg/kg/injection, schedule: Q04DX003 (ip), vehicle: alcohol) is on record?
Answer: 177 % of control

Question: And the T/C (dose: 150.0 mg/kg/injection, schedule: Q04DX003 (ip), vehicle: alcohol)?
Answer: 186 % of control

Question: And the T/C (dose: 300.0 mg/kg/injection, schedule: Q04DX003 (ip), vehicle: alcohol)?
Answer: 190 % of control

Question: Which T/C [10] does the source give for `CC(=O)OCC1OC(S[As](C)CCO)C(OC(C)=O)C(OC(C)=O)C1OC(C)=O` (configuration not stated) here?
Answer: 103 % of control and 109 % of control

Question: And the T/C [11]?
Answer: 102 % of control and 113 % of control

Question: And the T/C [1]?
Answer: 103 % of control and 117 % of control and 122 % of control

Question: What about the T/C [2] of the same compound?
Answer: 111 % of control and 116 % of control

Question: What about the T/C [3] of the same compound?
Answer: 108 % of control

Question: How did the T/C (dose: 12.5 mg/kg/injection, schedule: Q01DX009 (ip), vehicle: other) turn out when `CCNC(=O)N(Cc1ccccc1)Cc1ccccc1` was run?
Answer: 114 % of control

Question: What about the T/C (dose: 25.0 mg/kg/injection, schedule: Q01DX009 (ip), vehicle: other) of the same compound?
Answer: 112 % of control

Question: And the T/C (dose: 50.0 mg/kg/injection, schedule: Q01DX009 (ip), vehicle: other)?
Answer: 104 % of control

Question: And the T/C (dose: 100.0 mg/kg/injection, schedule: Q01DX009 (ip), vehicle: other)?
Answer: 118 % of control

Question: For `CC(=O)OCC1OC(OC2CC(=O)C[C@H]3C(=O)N(c4ccccc4)C(=O)[C@@H]23)C(OC(C)=O)C(OC(C)=O)C1OC(C)=O` (some centres not stated), which T/C [4] is on record?
Answer: 102 % of control

Question: What about the T/C [5] of the same compound?
Answer: 103 % of control

Question: What about the T/C [6] of the same compound?
Answer: 92 % of control

Question: Which results are given for `Cc1ccccc1C(C)(O)Cc1nccn1Cc1ccccc1` (configuration not stated)?
Answer: T/C [4]: 99 % of control; T/C [5]: 104 % of control; T/C [6]: 96 % of control

Question: What does the source list for `O=C(O)CCSC1=CC(=O)c2ccccc2C1=O`?
Answer: T/C (dose: 6.25 mg/kg/injection, schedule: Q04DX003 (ip), vehicle: gum acacia): 115 % of control; T/C (dose: 12.5 mg/kg/injection, schedule: Q04DX003 (ip), vehicle: gum acacia): 110 % of control
